In ChEMBL document CHEMBL4622970, “Design, Synthesis, and Evaluation of New Quinazolinone Derivatives that Inhibit Bloom Syndrome Protein (BLM) Helicase, Trigger DNA Damage at the Telomere Region, and Synergize with PARP Inhibitors” (J Med Chem, 2020):
Activity calls are given as the source filed them. The rule behind the calls is not given here.

Columns and labels:
[1] = target: T1, RecQ-like DNA helicase BLM (Homo sapiens, UniProt P54132); test: (§1) Inhibition of His-tagged BLM (642 to 1296 residues) (unknown origin) expressed in Escherichia coli BL21 (DE3) cells assessed as reduction in DNA unwinding activity using 5'-biotin-labeled forked DNA as substrate preincubated for 1 hr followed by substrate addition and measured after 1 hr by electrophoretic mobility shift assay
T1 sequence (P54132 whole entry, the tested form may be a part): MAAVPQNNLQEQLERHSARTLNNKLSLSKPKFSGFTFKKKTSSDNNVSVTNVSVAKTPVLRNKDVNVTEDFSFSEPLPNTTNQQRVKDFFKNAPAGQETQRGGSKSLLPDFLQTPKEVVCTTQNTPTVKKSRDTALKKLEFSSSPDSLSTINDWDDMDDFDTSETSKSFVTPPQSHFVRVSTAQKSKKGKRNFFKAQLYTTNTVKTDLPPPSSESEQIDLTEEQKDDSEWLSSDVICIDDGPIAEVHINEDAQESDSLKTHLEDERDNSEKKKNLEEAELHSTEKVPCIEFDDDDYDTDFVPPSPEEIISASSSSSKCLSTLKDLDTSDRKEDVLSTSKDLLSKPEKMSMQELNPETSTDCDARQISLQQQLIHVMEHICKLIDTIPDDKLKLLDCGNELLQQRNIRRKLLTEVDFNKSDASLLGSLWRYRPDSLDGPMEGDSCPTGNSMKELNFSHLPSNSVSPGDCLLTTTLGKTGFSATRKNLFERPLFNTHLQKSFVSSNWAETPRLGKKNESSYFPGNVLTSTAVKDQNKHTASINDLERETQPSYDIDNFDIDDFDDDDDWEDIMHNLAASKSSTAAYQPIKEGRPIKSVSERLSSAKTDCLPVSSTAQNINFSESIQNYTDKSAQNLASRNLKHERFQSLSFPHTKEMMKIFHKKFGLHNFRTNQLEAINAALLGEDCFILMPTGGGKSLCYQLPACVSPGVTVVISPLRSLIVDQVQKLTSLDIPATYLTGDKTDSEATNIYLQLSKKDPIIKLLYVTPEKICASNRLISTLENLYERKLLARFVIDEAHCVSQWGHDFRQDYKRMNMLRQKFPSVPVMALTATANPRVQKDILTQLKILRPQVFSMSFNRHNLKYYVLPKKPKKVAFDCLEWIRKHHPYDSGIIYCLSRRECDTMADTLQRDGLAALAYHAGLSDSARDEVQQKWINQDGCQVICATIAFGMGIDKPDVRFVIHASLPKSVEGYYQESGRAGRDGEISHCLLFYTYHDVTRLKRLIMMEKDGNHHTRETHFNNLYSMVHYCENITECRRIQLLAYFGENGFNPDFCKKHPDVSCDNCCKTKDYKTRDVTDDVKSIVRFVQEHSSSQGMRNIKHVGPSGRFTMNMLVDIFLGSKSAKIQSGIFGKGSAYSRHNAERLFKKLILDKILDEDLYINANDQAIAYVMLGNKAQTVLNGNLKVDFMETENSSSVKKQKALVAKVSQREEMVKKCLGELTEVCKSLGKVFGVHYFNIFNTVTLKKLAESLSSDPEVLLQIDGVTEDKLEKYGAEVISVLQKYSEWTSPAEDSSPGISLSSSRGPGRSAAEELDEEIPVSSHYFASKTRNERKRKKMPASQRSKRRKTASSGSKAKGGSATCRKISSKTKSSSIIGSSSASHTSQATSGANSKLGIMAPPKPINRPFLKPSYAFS

[2] = target: T1, RecQ-like DNA helicase BLM; test: as §1, with “activity at <10 uM” for “activity”
[3] = target: T1, RecQ-like DNA helicase BLM; test: Inhibition of BLM in human HCT116 cells assessed as down regulation of HRR level at 0.5 uM measured after 24 hrs by luciferase reporter gene assay; format: cell-based; conditions: HCT-116
[4] = tested on: HCT-116; test: Cytotoxicity against human HCT116 cells by MTT assay; format: functional, cell-based
[5] = target: T1, RecQ-like DNA helicase BLM; test: Inhibition of BLM in human HCT116 cells assessed as increase in gamma-H2AX level at 2 uM measured after 24 hrs by Western blot analysis; format: cell-based; conditions: HCT-116
[6] = target: T1, RecQ-like DNA helicase BLM; test: Binding affinity to His-tagged BLM (642 to 1296 residues) (unknown origin) expressed in Escherichia coli BL21 (DE3) cells assessed as inhibition of protein interaction with 5'-biotin-labeled forked DNA measured after 1 hr by ELISA
[7] = target: T1, RecQ-like DNA helicase BLM; test: Binding affinity to BLM in human HCT116 cells cotransfected with DSB model and I-SceI plasmid assessed as reduction in recruitment of protein to DSB site in DNA at 1 uM measured after 24 hrs by chromatin immunoprecipitation assay; format: cell-based; conditions: HCT-116
[8] = tested on: RecQ-like DNA helicase BLM (Homo sapiens), P54132 [H996A]; test: Binding affinity to His-tagged BLM H996A mutant (unknown origin) expressed in Escherichia coli BL21 (DE3) cells by isothermal calorimetric titration assay
RecQ-like DNA helicase BLM (Homo sapiens), P54132 [H996A], sequence (P54132 whole entry H996A): as the sequence (P54132 whole entry, the tested form may be a part) above, with H996A counted along it

[9] = tested on: RecQ-like DNA helicase BLM (Homo sapiens), P54132 [I1168A]; test: Binding affinity to His-tagged BLM I1168A mutant (unknown origin) expressed in Escherichia coli BL21 (DE3) cells by isothermal calorimetric titration assay
RecQ-like DNA helicase BLM (Homo sapiens), P54132 [I1168A], sequence (P54132 whole entry I1168A): as the sequence (P54132 whole entry, the tested form may be a part) above, with I1168A counted along it

[10] = target: T1, RecQ-like DNA helicase BLM; test: Inhibition of BLM in human HCT116 cells assessed as potentiation of olaparib-induced cytotoxicity at 1 to 2 uM measured after 48 hrs by MTT assay; format: cell-based; conditions: HCT-116
[11] = target: T1, RecQ-like DNA helicase BLM; test: Binding affinity to wild-type His-tagged BLM (642 to 1296 residues) (unknown origin) expressed in Escherichia coli BL21 (DE3) cells by isothermal calorimetric titration assay
[12] = target: T1, RecQ-like DNA helicase BLM; test: Binding affinity to BLM in human HCT116 cells cotransfected with DSB model and I-SceI plasmid assessed as reduction in recruitment of protein to DNA region distant from DSB site at 1 uM measured after 24 hrs by chromatin immunoprecipitation assay; format: cell-based; conditions: HCT-116
[13] = target: T1, RecQ-like DNA helicase BLM; test: Inhibition of BLM in human HCT116 cells assessed as potentiation of niraparib-induced cytotoxicity at 1 to 2 uM measured after 48 hrs by MTT assay; format: cell-based; conditions: HCT-116

Compound | IC50 [1] [µM] | Inhibition (active/not active) [2] | also measured
CCN(CC)CCNc1cc2nc3n(c(=O)c2cc1F)CCC3Cc1ccc(N(CC)CC)cc1O (centres undefined) | – | inactive | –
CCOCCNc1cc2nc3n(c(=O)c2cc1F)CC/C3=C\c1ccc(C(C)C)cc1 | > 10 | Active | –
CC(=O)NCCNc1cc2nc3n(c(=O)c2cc1F)CC/C3=C\c1ccc(C(C)C)cc1 | > 10 | Active | –
CCN(CC)CCNc1cc2nc3n(c(=O)c2cc1F)CC/C3=C\c1ccc(N(C)C)cc1 | > 10 | Active | –
CCN(CC)CCNc1cc2nc3n(c(=O)c2cc1F)CCC3Cc1ccc(C(C)C)cc1 (centres undefined) | > 10 | Active | –
CCN(CC)CCCNc1cc2nc(/C=C/c3ccc(C(C)C)cc3)[nH]c(=O)c2cc1F | > 10 | Active | –
CCc1ccc(/C=C2\CCc3c2nc2ccccc2c3NCCCN(CC)CC)cc1 | > 10 | Active | –
CCN(CC)CCNc1cc2nc3n(c(=O)c2cc1F)CCC3Cc1ccc(C(C)C)cc1O (centres undefined) | > 10 | Active | –
CCN(CC)CCCNc1c2c(nc3ccccc13)/C(=C/c1ccc(C(C)(C)C)cc1)CC2 | – | inactive | –
CCN(CC)CCNc1cc2nc3n(c(=O)c2cc1F)CCC3Cc1ccc(CC(C)C)cc1 (centres undefined) | > 10 | Active | –
CCN(CC)CCNc1cc2nc3n(c(=O)c2cc1F)CC/C3=C\c1cccs1 | – | inactive | –
CCN(CC)CCCNc1cc2nc3n(c(=O)c2cc1F)CC/C3=C\c1ccccc1 | – | inactive | –
CCN(CC)CCCNc1c2c(nc3ccccc13)/C(=C/c1ccc(CC(C)C)cc1)CC2 | > 10 | Active | –
CCNc1cc2nc(/C=C/c3ccc(C(C)C)cc3)n(CC)c(=O)c2cc1F | – | inactive | –
CCN(CC)CCNc1cc2nc3n(c(=O)c2cc1F)CC/C3=C\c1ccccc1 | – | inactive | –
CCN(CC)CCNc1cc2nc3n(c(=O)c2cc1F)CC/C3=C\c1ccc(O)c(O)c1 | > 10 | Active | –
CCN(CC)CCNc1cc2nc3n(c(=O)c2cc1F)CCC/C3=C\c1ccc(C(C)C)cc1 | > 10 | Active | –
CCN(CC)CCNc1cc2nc3n(c(=O)c2cc1F)CCC3Cc1ccc(N(C)C)cc1 (centres undefined) | > 10 | Active | –
CCN(CC)CCNc1cc2nc3n(c(=O)c2cc1F)CC/C3=C\c1ccc(O)cc1O | > 10 | Active | –
CC(C)CCNc1cc2nc3n(c(=O)c2cc1F)CC/C3=C\c1ccc(C(C)C)cc1 | – | inactive | –
CCN(CC)CCNc1cc2nc3n(c(=O)c2cc1F)CC/C3=C\c1ccc(OC)cc1 | – | inactive | –

Second part, led by results:

IC50 [1] [µM] | Inhibition (active/not active) [2] | Compound | also measured
4.7 | – | CCN(CC)CCCNc1cc2nc(/C=C/c3ccc(CC(C)C)cc3)[nH]c(=O)c2cc1F | –
> 10 | Active | CCN(CC)CCNc1cc2nc3n(c(=O)c2cc1F)CCC3Cc1ccc(C(C)(C)C)cc1 (centres undefined) | –
6.4 | – | CCN(CC)CCNc1cc2nc3n(c(=O)c2cc1F)CC/C3=C\c1ccc(N(C)C)cc1O | –
3.6 | – | CCN(CC)CCCNc1cc2nc(/C=C/c3ccc(C(C)C)cc3)n(CC(C)C)c(=O)c2cc1F | –
> 10 | Active | CC(C)c1ccc(/C=C2\CCc3c2nc2ccccc2c3NCCCN(C)C)cc1 | –
> 10 | Active | CCN(CC)CCNc1cc2nc3c(cc2cc1F)CC/C3=C\c1ccc(C(C)C)cc1 | –
1.3 | – | CCN(CC)CCNc1ccc2c(=O)n3c(nc2c1)/C(=C/c1ccc(C(C)C)cc1)CC3 | –
4 | – | CCN(CC)CCNc1cc2nc3n(c(=O)c2cc1F)CC/C3=C\c1ccc(C(C)C)cc1O | –
1.8 | – | CCN(CC)CCCCNc1cc2nc3n(c(=O)c2cc1F)CC/C3=C\c1ccc(C(C)C)cc1 | –
8.7 | – | CCN(CC)CCCNc1c2c(nc3ccccc13)/C(=C/c1ccc(C(C)C)cc1)CC2 | –
2.7 | – | CCN(CC)CCNc1cc2nc3n(c(=O)c2cc1F)CC/C3=C\c1ccc(C(C)(C)C)cc1 | inhibition [3]: Active; Activity [4]: Active; inhibition [5]: Active
2 | – | CCN(CC)CCNc1cc2nc3n(c(=O)c2cc1F)CC/C3=C\c1ccc(C(C)C)cc1 | inhibition [3]: Active; Activity [4]: Active; inhibition [5]: Active
2.2 | – | CCN(CC)CCNc1cc2nc(/C=C/c3ccc(C(C)C)cc3)n(C)c(=O)c2cc1F | inhibition [3]: Active; Activity [4]: Active; inhibition [5]: inactive
4.7 | – | CCN(CC)CCCNc1cc2nc(/C=C/c3ccc(C(C)C)cc3)n(C)c(=O)c2cc1F | –
2.8 | – | CC(C)c1ccc(/C=C2\CCn3c2nc2cc(NCCN(C)C)c(F)cc2c3=O)cc1 | inhibition [3]: Active; Activity [4]: Active; inhibition [5]: inactive; IC50 [6]: > 20 µM
3.1 | – | CCN(CC)CCNc1cc2nc3n(c(=O)c2cc1F)CC/C3=C\c1ccc(CC(C)C)cc1 | –
2.8 | – | CCN(CC)CCCNc1cc2nc(/C=C/c3ccc(C(C)C)cc3)n(CC)c(=O)c2cc1F | –
2.1 | – | CCN(CC)CCNc1cc2nc3n(c(=O)c2cc1F)CC/C3=C\c1ccc(N(CC)CC)cc1O | inhibition [3]: Active; Activity [4]: Active; inhibition [5]: inactive; IC50 [6]: > 20 µM
3.2 | – | CCc1ccc(/C=C2\CCn3c2nc2cc(NCCN(CC)CC)c(F)cc2c3=O)cc1 | –
3.3 | – | CCCc1ccc(/C=C2\CCn3c2nc2cc(NCCN(CC)CC)c(F)cc2c3=O)cc1 | –
4.2 | – | CCN(CC)CCCNc1cc2nc3n(c(=O)c2cc1F)CC/C3=C\c1ccc(C(C)C)cc1O | –
1.5 | – | CCN(CC)CCCNc1cc2nc3n(c(=O)c2cc1F)CC/C3=C\c1ccc(C(C)C)cc1 | Activity [7]: Active; inhibition [3]: Active; Activity [8]: Active; Activity [9]: Active; inhibition [10]: Active; Activity [11]: Active; Activity [12]: Active; inhibition [13]: Active
